Measured values as given in PubChem BioAssay (NCI).
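Method: 48-hour compound exposure of cells in 96-well plates, five concentrations, linear interpolation of endpoints. TGI denotes the concentration required for complete inhibition of growth.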

Assays:
Experiment in all cases: DTP human tumour cell line panel, 48 h
[1] = tested on: A549 NSCLC
[2] = tested on: LOX IMVI melanoma
[3] = tested on: COLO 205 colon
[4] = tested on: SNB-19 CNS
[5] = tested on: A498 renal
[6] = tested on: HCT-116 colon
[7] = tested on: MALME-3M melanoma
[8] = tested on: UO-31 renal
[9] = tested on: SW-620 colon
[10] = tested on: BT-549 breast
[11] = tested on: HS 578T breast
[12] = tested on: SK-OV-3 ovarian
[13] = tested on: SF-268 CNS
[14] = tested on: SK-MEL-5 melanoma

SMILES	TGI [1]	TGI [2]	TGI [3]	TGI [4]	TGI [5]	TGI [6]	TGI [7]	TGI [8]	TGI [9]	TGI [10]	TGI [11]	TGI [12]	TGI [13]	TGI [14]
CC(C)(C)c1ccc(-c2nc3ccc(Cl)cc3c(=O)o2)cc1	53 µM	31 µM	39.9 µM	80.1 µM	79.4 µM	40.5 µM	50.9 µM	77.6 µM	> 100 µM	63.6 µM	> 100 µM	68.7 µM	77.3 µM	26.2 µM
COc1ccc(C2C3=C(Nc4ncnn42)c2ccccc2OC3c2ccccc2)cc1 (centres undefined)	> 100 µM	> 100 µM	> 100 µM	> 100 µM	6.36 µM	> 100 µM	–	> 100 µM	> 100 µM	41.5 µM	> 100 µM	> 100 µM	> 100 µM	62.7 µM
Cc1cccc2c(N)c3cccc(C(=O)NCC[N+](C)(C)Cc4c([N+](=O)[O-])ncn4C)c3nc12	> 47.9 µM	35.6 µM	> 100 µM	> 100 µM	> 100 µM	> 90.2 µM	> 100 µM	69.1 µM	> 100 µM	> 100 µM	> 96.1 µM	> 71.1 µM	> 100 µM	> 88.8 µM
CCOP(=O)(CN1CCNCCNCC1)OCC	> 100 µM	> 100 µM	> 100 µM	> 100 µM	> 100 µM	> 100 µM	–	> 100 µM	> 100 µM	> 100 µM	> 100 µM	> 100 µM	–	> 100 µM
O=c1[nH]nc(Cc2ccccc2)[nH]1	> 100 µM	> 100 µM	> 100 µM	> 100 µM	> 100 µM	> 100 µM	> 100 µM	> 100 µM	> 100 µM	> 100 µM	> 100 µM	–	> 100 µM	> 100 µM
O=C1C=CC=C/C1=C1\N=C(c2ccccc2OCC(=O)c2ccc(Br)cc2)SS1	> 100 µM	> 100 µM	> 100 µM	> 100 µM	> 100 µM	> 100 µM	> 100 µM	> 100 µM	> 100 µM	62.9 µM	76.2 µM	> 100 µM	> 100 µM	> 100 µM
Cc1[nH]n(C2=NCCN2)c(=O)c1Cc1ccccc1	> 100 µM	> 100 µM	> 100 µM	> 100 µM	> 100 µM	> 100 µM	> 100 µM	> 100 µM	> 100 µM	> 100 µM	> 100 µM	> 100 µM	> 100 µM	> 100 µM
CC12CCC([C@H](C(O)C3CCCCC3)C1=O)C2(C)C (some centres undefined)	–	> 100 µM	> 100 µM	> 100 µM	> 100 µM	> 100 µM	–	> 100 µM	> 100 µM	> 100 µM	> 100 µM	> 100 µM	> 100 µM	> 100 µM
Cc1ccc(C)c(COCCOCn2ccc(N)nc2=O)c1	> 100 µM	> 100 µM	> 100 µM	> 100 µM	> 100 µM	> 100 µM	> 100 µM	> 100 µM	> 100 µM	> 100 µM	> 100 µM	> 100 µM	> 100 µM	–
